The text below walks through data of patent US20250241906A1, “ANABOLIC DRUGS STIMULATING TYPE II COLLAGEN PRODUCTION FROM CHONDROCYTES OR THEIR PROGENITORS” (UNIVERSITY OF CENTRAL FLORIDA RESEARCH FOUNDATION, INC., priority 2022, published 2025).

The target of test [1] is type II collagen promoter (COL2A1-Gaussia luciferase) in primary human chondrocytes. Put plainly: HuCol2gLuc 3D aggregate type II collagen promoter-driven Gaussia luciferase assay. Type of test: cell-based. The settings on record: HuCol2gLuc. As for the experimental part: Chondrogenic Culture. Human COL2A1-GLuc or uninfected cells were thawed and seeded in growth media on synoviocyte matrix at 6,000 cells/cm^2 and expanded to 90-100% confluence in physioxia. Cells were trypsinized (0.25% Trypsin/EDTA; Corning), resuspended in growth media (for monolayer culture) or chondrogenic differentiation media for 3D aggregates (93.24% High-Glucose DMEM (Gibco), 1% dexamethasone 10^−5M (Sigma), 1% ITS+premix (Becton-Dickinson), 1% Glutamax (Hyclone), 1% 100 mM Sodium Pyruvate (Hyclone), 1% MEM Non-Essential Amino Acids (Hyclone), 0.26% L-Ascorbic Acid Phosphate 50 mM (Wako), 0.5% Fungizone (Life Technologies) with TGF-β1 (Peprotech) and seeded as described below.
Generation and Maintenance of 3D aggregates. To generate 3D aggregates, cells were seeded at 50,000 cells per well (in 96-well cell repellent u-bottom plates, GreinerBio) and then centrifuged at 500 RCF, 5 min. For the initial drug screen, aggregates were cultured in basal chondrogenic media (1 ng/ml TGF-β1) alone, with DMSO (vehicle control) or 5 μM of the drug compounds from the NCI library (Natural Products V, NCI). For candidate validation and subsequent studies aggregates were cultured in basal chondrogenic media (10 ng/ml TGF-β1) alone, with DMSO (vehicle control) or compounds as indicated in the results. Aggregates were cultured for three weeks in physioxic conditions, culture medium was sampled and replaced three times a week with fresh medium. An OT-2 (Opentrons) python coded robotic pipette, programmed at an aspiration height of 2 mm from the bottom of the wells and aspiration rate of 40 μl/s was utilized for addition of compound, cell feeding, and media sampling for luciferase assay. After three weeks, cell aggregates were either fixed in neutral buffered formalin for histology or medium removed and aggregates frozen dry (−20° C.) for biochemical assays.
Luciferase Assay. Conditioned culture medium sampled from aggregates in 96-wells (20 μL/well) was assessed using a stabilized Gaussia Luciferase buffer mix (50 µl/well) for a final concentration of 0.09 M MES, 0.15M Ascorbic Acid, and 4.2 μM Coelenterazine in white 96-well plates. Luminescence was measured in a plate reader (25° C., relative light units (RLU), En Vision plate reader). An OT-2 (Opentrons) python coded robotic pipette was utilized for luciferase buffer addition to white plates (GreinerBio).

In test [2] the test system is HuPRG4gLuc aggregates. As to the kind of experiment: Biochemical assays on HuPRG4gLuc aggregates. Type of test: cell-based, human. The settings on record: day 22. The protocol: Biochemical assays. As previously described, frozen samples were digested in papain (0.025 mg/mL papain in 50 mM sodium phosphate, 2 mM EDTA, 2 mM cysteine) overnight. Hoechst dye was used to quantify the DNA content of the digest, with calf thymus DNA (Sigma) as the standard. Samples were read on a plate reader (Ex365, Em460 nm, SpectraMax iD5, Molecular Devices). Dimethylmethylene blue (5 ml of 3.2 mg/mL DMMB dissolved in 200 proof ethanol added to 1L of 40 mM glycine, 40 mM NaCl at pH 1.5) colorimetric assay was used to quantify GAG content of the digest with absorbance readings at 525 nm and 595 nm (correction). Hydroxyproline (HDP) content was measured for total collagen quantification. Papain digested samples were acid hydrolyzed overnight (10:1 vol/vol, 6M HCl, 110° C.) and then dried overnight (70° C.). Copper sulfate (0.15M) and NaOH (2.5M) were added and incubated (50° C., 5 minutes). Oxidation occurred through 10-minute incubation with hydrogen peroxide (6% H2O2, 50° C.). Sulfuric acid was added (1.5M H2SO4) prior to reaction with Ehrlich's reagent (10% w/v 4-dimethylamino benzaldehyde in 60% isopropanol, 26% perchloric acid, 14% MΩ water) for a final incubation (70° C., 16 minutes). Absorbance was read at 505 nm (SpectraMax iD5, Molecular Devices) with hydroxyproline standard curve generated using hydroxyproline (Sigma). […]

For test [3], the target named is PRG4 (lubricin) promoter in primary human chondrocytes. As to the kind of experiment: HuPRG4gLuc aggregate lubricin promoter-driven Gaussia luciferase assay, TGFβ1 dose response. Type of test: cell-based. The note with it: 0-40 ng/mL. The protocol:
HuPRG4gLuc reporter cell aggregate culture and TGFβ1 dose response. HuPRG4gLuc reporter chondrocytes were thawed from frozen stocks and seeded onto synoviocyte derived matrix coated flasks to expand to confluence (˜5 days, 37° C., 5% CO2 and 5% O2). Upon confluence, cells were trypsinized (0.25% Trypsin/EDTA, 5 min, 37° C.), neutralized with growth media (DMEM/F12 (Gibco) supplemented with 10% FBS (mesenchymal stromal cell selected and 1% penicillin-streptomycin (Hyclone)), then centrifuged (5 min, 500 RCF, room temperature [RT]). Cells were then resuspended in defined chondrogenic media (DMEM-HG 93.24% (Lonza), 1% 10^−5 M dexamethasone (Sigma), 1% ITS+premix (Becton-Dickinson), 1% Glutamax (Hyclone), 1% 100 mM Sodium Pyruvate (Hyclone), 1% MEM Non-Essential Amino Acids (Hyclone), 0.26% 50 mM L-Ascorbic Acid Phosphate (Wako), 0.5% Fungizone (Life Technologies)), and seeded (50,000 cells/well) onto a non-adherent 96-well plate (Greiner Bio), then centrifuged to form cell aggregates (5 min, 500 RCF, RT). […] Media containing the secreted Gaussia luciferase was sampled twice a week for luminescence (section 2.3). […]
Luciferase assessment. As previously described, during the 22-day culture period, luminescence was assessed twice a week. […] Luminescence was read on a plate reader (PerkinElmer EnVision 2104 Multilabel Reader.

Test [4] has as its target type II collagen promoter (COL2A1-GLuc) in primary rabbit chondrocytes. Put plainly: COL2A1-GLuc primary rabbit chondrocyte 3D aggregate luciferase assay. The test is classed as cell-based. The note with it: 0-10 ng/ml. The protocol: Chondrogenic Culture. Rabbit COL2A1-GLuc were thawed and seeded in growth media at 6000 cells/cm^2 and expanded to 90-100% confluence in physioxia. Cells were trypsinized (0.25% Trypsin/EDTA; Corning), resuspended in basal chondrogenic media (93.24% High-Glucose DMEM (Gibco), 1% dexamethasone 10^−5 M (Sigma), 1% ITS+premix (Becton-Dickinson), 1% Glutamax (Hyclone), 1% 100 mM Sodium Pyruvate (Hyclone), 1% MEM Non-Essential Amino Acids (Hyclone), 0.26% L-Ascorbic Acid Phosphate 50 mM (Wako), 0.5% Fungizone (Life Technologies) with TGF-β1 (Peprotech) and seeded as described below.
Generation and Maintenance of 3D Aggregates. To generate 3D aggregates, cells were seeded at 50,000 cells per well (in 96-well cell repellent u-bottom plates, GreinerBio) and then centrifuged at 500 RCF, 5 min. For the TGF-β1 dose response studies, that serve as positive controls for the reporter cells, aggregates were cultured in basal chondrogenic media and different concentrations of TGF-β1 ranging from 0-10 ng/ml. For the DoE studies, aggregates were cultured in basal chondrogenic media (1 ng/ml TGF-β1) as a control or basal media supplemented with vitamins and minerals (Table 3 and Table 5). Plates were cultured for three weeks in physioxia, media was sampled and replaced three times a week with respective medium. An OT-2 (Opentrons) python coded robotic pipette, programmed at an aspiration height of 2 mm from the bottom of the wells and aspiration rate of 40 μl/s was utilized for media preparation, cell feeding, and media sampling for luciferase assay. After three weeks, cell aggregates were either fixed in neutral buffered formalin for histology or medium removed and aggregates frozen dry (−20° C.) for biochemical assays.
Luciferase Assay. Cell culture medium sampled from the seeded 96-wells (20 μL/well) was assessed using a stabilized Gaussia Luciferase buffer at a final concentration of 0.09 M MES, 0.15M Ascorbic Acid, and 4.2 μM Coelenterazine in white 96-well plates. Luminescence was measured in a plate reader (25° C., relative light units, En Vision plate reader). An OT-2 (Opentrons) python coded robotic pipette was utilized for luciferase buffer addition to white plates (GreinerBio).

For test [5], the system named is cartilage (destabilized meniscus model). The settings on record: cited from earlier work.
Test [6] concerns NF-κB and JAK2/STAT3 signaling. The settings on record: monolayer culture; cited from earlier work.
Test [7] deals with rat knee. The note with it: cited from earlier work.

As for “TGFβ1: transforming growth factor beta 1, known stimulator of chondrogenesis, type II collagen and lubricin [reference compound]”, the EC50 luminescence in test [1] (donor 2, day 7) amounted to 0.142 ng/mL; in test [1] (donor 2, day 21), 1.868 ng/mL; in test [1] (first donor, day 8, 0-100 ng/ml), 0.780 ng/mL; in test [1] (first donor, day 17), 2.702 ng/mL; in test [3] (day 10) it was 2.5 ng/mL; in test [3] (day 22), 4.2 ng/mL. Also, the EC50 luminescence in test [4] (Day 7) was 0.17 ng/mL; in test [4] (Day 21), 0.10 ng/mL. Moreover, the “EC50 DNA” value in test [2] was 2.8 ng/mL. Moreover, the “EC50 GAG/DNA” value in test [2] stood at 4.8 ng/mL.

On to `NCCc1ccc(O)c(O)c1` [dopamine], for which the “decrease in OARSI score” value in test [5] is 50%. Besides, the “NF-κB and JAK2/STAT3 signaling” value in test [6] was “inhibition of NF-κB and JAK2/STAT3 signaling”.

B1: FGF18: growth factor cited for dose scaling (protein, UniProt O76093 28-207, looked up)
Fibroblast growth factor 18: EENVDFRIHVENQTRARDDVSRKQLRLYQLYSRTSGKHIQVLGRRISARGEDGDKYAQLLVETDTFGSQVRIKGKETEFYLCMNRKGKLVGKPDGTSKECVFIEKVLENNYTALMSAKYSGWYVGFTKKGRPRKGPKTRENQQDVHFMKRYPKGQPELQKPFKYTTVTKRSRRIRPTHPA
Regarding B1, the “in vivo rat knee efficacy” value in test [7] was 3-5 μg/knee.
